Laboratory results reported in patent US20250320193A1, “OXOISOINDOLINYL SUBSTITUTED PIPERIDINEDIONE DERIVATIVE AND USE THEREOF” (GLUETACS THERAPEUTICS (SHANGHAI) CO., LTD., priority 2022, published 2025).

What was measured:
Format in all cases: cell-based
[1] = target: IKZF3 (Homo sapiens (Human), UniProt Q96SW2+Q9UKT9); assay: Western blot, substrate protein expression in hPBMC: IKZF3; details: for substrate protein remaining % IKZF3: hPBMC, compound 500 nM, 24 hours, Western blot; for concentration at which IKZF3 protein was significantly degraded (Western blot, FIG. 1): hPBMCs
Chain of IKZF3 (Q9UKT9 whole entry): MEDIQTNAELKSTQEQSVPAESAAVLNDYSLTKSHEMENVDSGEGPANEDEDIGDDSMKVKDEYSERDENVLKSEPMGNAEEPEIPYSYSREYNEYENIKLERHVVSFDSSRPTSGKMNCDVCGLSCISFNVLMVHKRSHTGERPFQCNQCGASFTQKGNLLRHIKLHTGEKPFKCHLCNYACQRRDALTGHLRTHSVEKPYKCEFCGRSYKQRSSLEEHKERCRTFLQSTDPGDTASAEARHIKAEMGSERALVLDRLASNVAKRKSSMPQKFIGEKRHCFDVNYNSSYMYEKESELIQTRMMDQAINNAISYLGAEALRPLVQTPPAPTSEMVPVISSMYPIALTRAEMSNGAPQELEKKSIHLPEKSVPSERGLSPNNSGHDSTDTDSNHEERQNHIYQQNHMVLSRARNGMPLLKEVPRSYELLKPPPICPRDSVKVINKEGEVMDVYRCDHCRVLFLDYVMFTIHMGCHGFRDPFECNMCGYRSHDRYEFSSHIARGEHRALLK
Chain of IKZF3 (Q96SW2 whole entry): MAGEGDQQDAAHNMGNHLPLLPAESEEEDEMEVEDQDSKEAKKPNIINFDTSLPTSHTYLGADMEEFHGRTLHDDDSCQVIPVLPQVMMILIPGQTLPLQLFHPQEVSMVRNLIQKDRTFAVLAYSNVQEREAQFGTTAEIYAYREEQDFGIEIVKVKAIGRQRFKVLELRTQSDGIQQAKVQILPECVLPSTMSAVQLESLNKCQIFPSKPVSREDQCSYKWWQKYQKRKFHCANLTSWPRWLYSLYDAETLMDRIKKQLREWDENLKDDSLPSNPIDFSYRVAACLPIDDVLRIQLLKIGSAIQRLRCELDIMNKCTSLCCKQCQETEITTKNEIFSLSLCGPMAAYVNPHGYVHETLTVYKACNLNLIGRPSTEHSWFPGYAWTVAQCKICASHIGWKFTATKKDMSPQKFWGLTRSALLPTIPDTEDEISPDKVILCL
Chain of IKZF3 (Q16531 whole entry partner): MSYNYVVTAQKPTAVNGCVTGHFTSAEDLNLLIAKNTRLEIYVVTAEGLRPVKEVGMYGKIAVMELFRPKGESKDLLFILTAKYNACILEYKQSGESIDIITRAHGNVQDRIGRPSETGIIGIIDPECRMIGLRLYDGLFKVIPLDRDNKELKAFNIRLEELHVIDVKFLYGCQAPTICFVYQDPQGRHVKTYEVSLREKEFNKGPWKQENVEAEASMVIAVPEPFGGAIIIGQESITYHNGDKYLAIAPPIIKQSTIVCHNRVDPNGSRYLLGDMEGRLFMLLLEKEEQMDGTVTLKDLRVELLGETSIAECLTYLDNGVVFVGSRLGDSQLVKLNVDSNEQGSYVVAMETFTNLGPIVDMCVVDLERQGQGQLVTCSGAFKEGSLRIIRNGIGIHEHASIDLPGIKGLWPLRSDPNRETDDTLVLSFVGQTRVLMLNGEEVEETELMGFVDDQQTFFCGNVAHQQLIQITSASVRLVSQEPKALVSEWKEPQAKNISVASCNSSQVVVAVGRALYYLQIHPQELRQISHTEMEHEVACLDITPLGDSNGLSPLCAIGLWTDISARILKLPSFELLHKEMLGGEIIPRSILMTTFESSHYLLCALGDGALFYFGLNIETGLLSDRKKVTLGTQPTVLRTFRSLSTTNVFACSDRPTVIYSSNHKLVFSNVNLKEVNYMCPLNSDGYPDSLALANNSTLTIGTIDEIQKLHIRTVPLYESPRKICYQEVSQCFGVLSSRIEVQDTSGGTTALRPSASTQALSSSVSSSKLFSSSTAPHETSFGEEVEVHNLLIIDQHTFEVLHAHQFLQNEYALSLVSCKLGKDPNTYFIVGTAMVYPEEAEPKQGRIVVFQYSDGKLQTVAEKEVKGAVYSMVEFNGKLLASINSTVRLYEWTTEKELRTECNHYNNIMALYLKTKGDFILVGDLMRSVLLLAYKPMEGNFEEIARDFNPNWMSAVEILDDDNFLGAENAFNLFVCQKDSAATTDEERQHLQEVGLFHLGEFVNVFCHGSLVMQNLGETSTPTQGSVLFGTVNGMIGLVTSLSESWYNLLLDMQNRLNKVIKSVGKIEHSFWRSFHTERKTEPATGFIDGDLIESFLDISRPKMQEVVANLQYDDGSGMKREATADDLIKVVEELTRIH
Description: (§1) The effect of the compounds of the present disclosure on the expression of target proteins in cells was detected using conventional Western blot analysis.
(§2) Human peripheral blood mononuclear cells (hPBMCs) at a density of 1×10^6 cells/mL were thawed according to the PBMC Recovery Protocol (Milecell Biotechnologies Inc, Shanghai). […] After 24 hours of compounds treatment, cells were harvested and lysed in RIPA protein lysate containing phosphatase inhibitors on ice for 30-60 min, followed by centrifugation. The supernatant was aspirated as the extracted total cell protein. The protein concentration of the supernatant was determined using the conventional BCA (Bicinchoninic Acid) assay. The supernatant was then mixed with 4× SDS sample loading buffer, denatured at 95° C. for 5 minutes, and then subjected to SDS-PAGE electrophoresis on a polyacrylamide gel. Proteins were then transferred to a nitrocellulose (NC) membrane, blocked at room temperature for 1-2 h, and processed for antibody incubation and detection according to the manufacturer's instructions (Cell Signaling Technology).
(§3) Half-Maximal Degradation Concentration value (the drug concentration required for degrading proteins by 50%, abbreviated as DC50) reads method: comparing the grayscale values of Western blot bands from drug-treated samples (protein degrader compounds) with those from blank (DMSO-treated) controls, and identifying the drug concentration range at which the grayscale value is half that of the DMSO-treated control bands.
(§4) DC50 values can be calculated using ImageJ software to measure grayscale values of Western blot bands from drug-treated samples. The relationship curve between drug concentration and grayscale values is fitted to estimate the drug concentration corresponding to half the grayscale value.
(§5) Target protein remaining (%) refers to the percentage of target protein remaining in hPBMC cells after treatment with protein degrader compounds.
(§6) Calculation method for protein remaining (%): Use ImageJ software to measure grayscale values of Western blot bands from drug (protein degrader)-treated samples. The grayscale value of drug-treated bands is divided by that of internal control protein bands, and the resulting quotient is normalized to obtain the relative percentage of remaining target protein after protein degrader treatment.
(§7) Target protein degradation rate (%)=100%-target protein remaining (%).

[2] = target: GSPT1 (Homo sapiens (Human), UniProt P15170+Q96SW2); assay: Western blot, substrate protein expression in hPBMC: GSPT1; details: for substrate protein remaining % GSPT1: hPBMC, compound 500 nM, 24 hours, Western blot
Chain of GSPT1 (P15170 whole entry): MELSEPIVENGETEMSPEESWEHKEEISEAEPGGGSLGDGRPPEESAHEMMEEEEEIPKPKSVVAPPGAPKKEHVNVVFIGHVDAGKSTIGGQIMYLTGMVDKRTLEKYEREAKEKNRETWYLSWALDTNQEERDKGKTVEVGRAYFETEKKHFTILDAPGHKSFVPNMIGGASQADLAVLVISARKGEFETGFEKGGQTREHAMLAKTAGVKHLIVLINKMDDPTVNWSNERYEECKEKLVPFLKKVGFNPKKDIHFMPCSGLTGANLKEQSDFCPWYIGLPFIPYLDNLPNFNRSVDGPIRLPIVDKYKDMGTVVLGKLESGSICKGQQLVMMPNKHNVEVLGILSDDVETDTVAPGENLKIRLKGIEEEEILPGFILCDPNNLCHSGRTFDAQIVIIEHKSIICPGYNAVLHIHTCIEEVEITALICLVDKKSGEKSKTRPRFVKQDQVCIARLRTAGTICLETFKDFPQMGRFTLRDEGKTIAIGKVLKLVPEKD
Chain of GSPT1 (Q96SW2 whole entry): as the sequence (Q96SW2 whole entry) above
Chain of GSPT1 (Q16531 whole entry partner): as the sequence (Q16531 whole entry partner) above
Description: as §1, §2, §3, §4, §5, §6, §7

[3] = target: IKZF1 (Homo sapiens (Human), UniProt Q13422+Q96SW2); assay: Western blot, substrate protein expression in hPBMC: IKZF1; details: for substrate protein remaining % IKZF1: hPBMC, compound 500 nM, 24 hours, Western blot; for concentration at which IKZF1 protein was significantly degraded (Western blot, FIG. 1): hPBMCs
Chain of IKZF1 (Q13422 whole entry): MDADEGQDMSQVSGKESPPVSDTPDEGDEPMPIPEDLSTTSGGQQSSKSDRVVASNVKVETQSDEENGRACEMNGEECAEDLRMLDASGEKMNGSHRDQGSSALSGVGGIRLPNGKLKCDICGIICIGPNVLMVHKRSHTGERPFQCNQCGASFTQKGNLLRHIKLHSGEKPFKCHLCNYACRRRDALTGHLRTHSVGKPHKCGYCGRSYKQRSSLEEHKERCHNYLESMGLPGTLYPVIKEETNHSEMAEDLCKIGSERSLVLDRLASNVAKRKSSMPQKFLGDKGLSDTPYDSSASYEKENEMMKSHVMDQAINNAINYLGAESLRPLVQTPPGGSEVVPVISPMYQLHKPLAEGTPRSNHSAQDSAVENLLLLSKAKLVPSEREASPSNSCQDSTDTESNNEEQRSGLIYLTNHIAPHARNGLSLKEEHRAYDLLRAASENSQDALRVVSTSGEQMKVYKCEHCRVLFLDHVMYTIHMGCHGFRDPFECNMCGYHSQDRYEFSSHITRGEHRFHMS
Chain of IKZF1 (Q96SW2 whole entry): as the sequence (Q96SW2 whole entry) above
Chain of IKZF1 (Q16531 whole entry partner): as the sequence (Q16531 whole entry partner) above
Description: as §1, §2, §3, §4, §5, §6, §7

Row | SMILES | substrate protein remaining % IKZF3 [1] | substrate protein remaining % GSPT1 [2] | substrate protein remaining % IKZF1 [3] | concentration at which IKZF3 protein was significantly degraded (Western blot, FIG. 1) [1] | concentration at which IKZF1 protein was significantly degraded (Western blot, FIG. 1) [3] | concentration at which GSPT1 protein was clearly/significantly degraded (Western blot, FIG. 1) ([2]; hPBMCs)
1 | O=C1CCC(N2Cc3c(ccc(CN4C5CC4CN(C(c4ccccc4)c4ccccc4)C5)c3F)C2=O)C(=O)N1 (centres unmarked) [GT-03572, 3-(5-((3-benzhydryl-3,6-diazabicyclo[3.1.1]heptan-6-yl)methyl)-4-fluoro-1-oxoisoindolin-2-yl)piperidine-2,6-dione] | A (A represents 0% ≤ substrate protein remaining % ≤ 50%) | A (A represents 0% ≤ substrate protein remaining % ≤ 50%) | B (B represents substrate protein remaining % > 50%) | – | – | –
2 | O=C1CCC(N2Cc3c(CN4CCN(C(c5ccc(Cl)cc5)c5ccc(Cl)cc5)CC4)cccc3C2=O)C(=O)N1 (centres unmarked) [GT-03648, 3-(4-((4-(bis(4-chlorophenyl)methyl)piperazin-1-yl)methyl)-1-oxoisoindolin-2-yl)piperidine-2,6-dione] | B (B represents substrate protein remaining % > 50%) | A (A represents 0% ≤ substrate protein remaining % ≤ 50%) | B (B represents substrate protein remaining % > 50%) | – | – | –
3 | O=C1CCC(N2Cc3cc(CN4CCN(C(c5cccnc5)c5cccnc5)CC4)c(F)cc3C2=O)C(=O)N1 (centres unmarked) [GT-04386, 3-(5-((4-(di(pyridin-3-yl)methyl)piperazin-1-yl)methyl)-6-fluoro-1-oxoisoindolin-2-yl)piperidine-2,6-dione] | B (B represents substrate protein remaining % > 50%) | A (A represents 0% ≤ substrate protein remaining % ≤ 50%) | B (B represents substrate protein remaining % > 50%) | – | – | –
4 | O=C1CCC(N2C(=O)c3ccc(CN4CCN(C(c5ccccc5)c5ccccc5)CC4)cc3C2=O)C(=O)N1 (centres unmarked) [GT-05690, 5-((4-benzhydrylpiperazin-1-yl)methyl)-2-(2,6-dioxopiperidin-3-yl) isoindoline-1,3-dione] | A (A represents 0% ≤ substrate protein remaining % ≤ 50%) | A (A represents 0% ≤ substrate protein remaining % ≤ 50%) | A (A represents 0% ≤ substrate protein remaining % ≤ 50%) | < 500 nM | < 500 nM | –
5 | O=C1CCC(N2C(=O)c3ccc(CN4CCN(C(c5ccccc5)c5ccccn5)CC4)cc3C2=O)C(=O)N1 (centres unmarked) [GT-05723, 2-(2,6-dioxopiperidin-3-yl)-5-((4-(phenyl(pyridin-2-yl)methyl)piperazin-1-yl)methyl) isoindoline-1,3-dione] | B (B represents substrate protein remaining % > 50%) | A (A represents 0% ≤ substrate protein remaining % ≤ 50%) | B (B represents substrate protein remaining % > 50%) | – | – | –
6 | O=C1CCC(N2C(=O)c3ccc(CN4CCN(C(c5ccc(F)cc5)c5ccc(F)cc5)CC4)cc3C2=O)C(=O)N1 (centres unmarked) [GT-05726, 5-((4-(bis(4-fluorophenyl)methyl)piperazin-1-yl)methyl)-2-(2,6-dioxopiperidin-3-yl) isoindoline-1,3-dione] | A (A represents 0% ≤ substrate protein remaining % ≤ 50%) | A (A represents 0% ≤ substrate protein remaining % ≤ 50%) | B (B represents substrate protein remaining % > 50%) | – | – | –
7 | O=C1CCC(N2C(=O)c3ccc(CN4CCN(C(c5ccc(Cl)cc5)c5ccc(Cl)cc5)CC4)cc3C2=O)C(=O)N1 (centres unmarked) [GT-05727, 5-((4-(bis(4-chlorophenyl)methyl)piperazin-1-yl)methyl)-2-(2,6-dioxopiperidin-3-yl) isoindoline-1,3-dione] | A (A represents 0% ≤ substrate protein remaining % ≤ 50%) | A (A represents 0% ≤ substrate protein remaining % ≤ 50%) | B (B represents substrate protein remaining % > 50%) | – | – | –
8 | O=C1CCC(N2C(=O)c3ccc(CN4CCCN(C(c5ccccc5)c5ccccc5)CC4)cc3C2=O)C(=O)N1 (centres unmarked) [GT-05739, 5-((4-benzhydryl-1,4-diazepan-1-yl)methyl)-2-(2,6-dioxopiperidin-3-yl) isoindoline-1,3-dione] | B (B represents substrate protein remaining % > 50%) | A (A represents 0% ≤ substrate protein remaining % ≤ 50%) | B (B represents substrate protein remaining % > 50%) | – | – | –
9 | O=C1CCC(N2C(=O)c3ccc(CN4CCC(N(c5ccccc5)c5ccccn5)CC4)cc3C2=O)C(=O)N1 (centres unmarked) [GT-05742, 2-(2,6-dioxopiperidin-3-yl)-5-((4-(phenyl(pyridin-2-yl)amino)piperidin-1-yl)methyl) isoindoline-1,3-dione] | A (A represents 0% ≤ substrate protein remaining % ≤ 50%) | A (A represents 0% ≤ substrate protein remaining % ≤ 50%) | A (A represents 0% ≤ substrate protein remaining % ≤ 50%) | below 50 nM | below 50 nM | below 50 nM
10 | O=C1CCC(N2Cc3ccc(C(=O)N4CCN(C(c5ccccc5)c5ccccc5)CC4)cc3C2=O)C(=O)N1 (centres unmarked) [GT-05851, 3-(6-(4-benzhydrylpiperazine-1-carbonyl)-1-oxoisoindolin-2-yl)piperidine-2,6-dione] | B (B represents substrate protein remaining % > 50%) | A (A represents 0% ≤ substrate protein remaining % ≤ 50%) | A (A represents 0% ≤ substrate protein remaining % ≤ 50%) | – | – | –
11 | O=C1CCC(N2C(=O)c3ccc(C(=O)N4CCN(C(c5ccccn5)c5ccccn5)CC4)cc3C2=O)C(=O)N1 (centres unmarked) [GT-05880, 5-(4-(di(pyridin-2-yl)methyl)piperazine-1-carbonyl)-2-(2,6-dioxopiperidin-3-yl) isoindoline-1,3-dione] | B (B represents substrate protein remaining % > 50%) | A (A represents 0% ≤ substrate protein remaining % ≤ 50%) | B (B represents substrate protein remaining % > 50%) | – | – | –
12 | O=C1CCC(N2C(=O)c3ccc(C(=O)N4CCN(C(c5ccc(F)cc5)c5ccc(F)cc5)CC4)cc3C2=O)C(=O)N1 (centres unmarked) [GT-05885, 5-(4-(bis(4-fluorophenyl)methyl)piperazine-1-carbonyl)-2-(2,6-dioxopiperidin-3-yl) isoindoline-1,3-dione] | B (B represents substrate protein remaining % > 50%) | A (A represents 0% ≤ substrate protein remaining % ≤ 50%) | B (B represents substrate protein remaining % > 50%) | – | – | –
13 | O=C1CCC(N2C(=O)c3ccc(C(=O)N4CCN(C(c5ccc(Cl)cc5)c5ccc(Cl)cc5)CC4)cc3C2=O)C(=O)N1 (centres unmarked) [GT-05890, 5-(4-(bis(4-chlorophenyl)methyl)piperazine-1-carbonyl)-2-(2,6-dioxopiperidin-3-yl) isoindoline-1,3-dione] | B (B represents substrate protein remaining % > 50%) | A (A represents 0% ≤ substrate protein remaining % ≤ 50%) | B (B represents substrate protein remaining % > 50%) | – | – | –
14 | O=C1CCC(N2Cc3cc(C(=O)N4C5CC4CN(C(c4ccccc4)c4ccccc4)C5)ccc3C2=O)C(=O)N1 (centres unmarked) [GT-05891, 3-(5-(3-benzhydryl-3,6-diazabicyclo[3.1.1]heptane-6-carbonyl)-1-oxoisoindolin-2-yl)piperidine-2,6-dione] | B (B represents substrate protein remaining % > 50%) | A (A represents 0% ≤ substrate protein remaining % ≤ 50%) | B (B represents substrate protein remaining % > 50%) | – | – | –
15 | O=C1CCC(N2Cc3cc(C(=O)N4CCCN(C(c5ccccc5)c5ccccc5)CC4)ccc3C2=O)C(=O)N1 (centres unmarked) [GT-05892, 3-(5-(4-benzhydryl-1,4-diazepane-1-carbonyl)-1-oxoisoindolin-2-yl)piperidine-2,6-dione] | B (B represents substrate protein remaining % > 50%) | A (A represents 0% ≤ substrate protein remaining % ≤ 50%) | B (B represents substrate protein remaining % > 50%) | – | – | –
16 | O=C1CCC(N2C(=O)c3ccc(CN4CCN(C5c6ccccc6-c6ccccc65)CC4)cc3C2=O)C(=O)N1 (centres unmarked) [GT-05908, 5-((4-(9H-fluoren-9-yl)piperazin-1-yl)methyl)-2-(2,6-dioxopiperidin-3-yl) isoindoline-1,3-dione] | A (A represents 0% ≤ substrate protein remaining % ≤ 50%) | A (A represents 0% ≤ substrate protein remaining % ≤ 50%) | A (A represents 0% ≤ substrate protein remaining % ≤ 50%) | – | – | –
